The values below come from ChEMBL document CHEMBL1201862, “PubChem BioAssay data set” (2004).

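A five-concentration, 48-hour dose response in 96-well plates underlies each endpoint, interpolated linearly between surrounding concentrations. GI50 = concentration required for 50% inhibition of growth.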 The source made the active and inactive calls. No stated cut-off is given here; in the data, active = GI50 up to about 1.1 µM and inactive = higher. Bounds are passed on as bounds.

Some test systems named below: SNB-19; MDA-MB-231; Hs-578T; OVCAR-4; HCT-15; SF-539; OVCAR-3; NCI-H226; OVCAR-8; OVCAR-5; HT-29; NCI-H23; SK-MEL-2; HOP-62; K562; PC-3; TK-10; UACC-257; IGROV-1.
Experiment in all cases: NCI-60 cell line screen, 48 h

For the molecule `COc1ccc2c(c1)OC1c3ccccc3OCC21` (stereo not drawn), the GI50 with SNB-19 is 93.3 µM (inactive); in the test on MDA-MB-231 it was > 100 µM (inactive); in the test with Hs-578T, > 100 µM (inactive); in the test with OVCAR-4, > 100 µM (inactive); in the test on HCT-15, 62.7 µM; in the test with SF-539 it was > 100 µM (inactive). Further, the GI50 was 72.1 µM (inactive) with OVCAR-3; 47.1 µM (inactive) in the test on NCI-H226; > 100 µM (inactive) in the test with OVCAR-8; > 100 µM (inactive) in the test with OVCAR-5; 25.6 µM (inactive) in the test with HT-29; 61.4 µM (inactive) in the test with NCI-H23. The GI50 with SK-MEL-2 was > 100 µM (inactive); in the test with HOP-62 it was > 100 µM (inactive); in the test with K562, 31.8 µM (inactive); in the test with PC-3 it was > 100 µM (inactive); in the test with TK-10, > 100 µM (inactive); with UACC-257 it was > 100 µM (inactive). Further, the GI50 in the test with IGROV-1 was > 100 µM (inactive).
`Cc1cc2nnn(C3CCCCO3)c2cc1C` (stereo not drawn): the GI50 is > 100 µM (inactive) in the test on SNB-19; > 100 µM (inactive) with MDA-MB-231; > 100 µM (inactive) in the test with Hs-578T; > 100 µM (inactive) in the test with OVCAR-4; above 100 µM with HCT-15; > 100 µM (inactive) with SF-539. For the same molecule, the GI50 with OVCAR-3, in the test with NCI-H226, with OVCAR-8, in the test with OVCAR-5, in the test with HT-29 and in the test on NCI-H23 was > 100 µM (inactive) throughout. The GI50 in the test with SK-MEL-2, in the test on HOP-62, in the test on K562, with PC-3, in the test with TK-10 and with UACC-257 was > 100 µM (inactive) in each case. Further, the GI50 in the test on IGROV-1 was > 100 µM (inactive).
As for `COc1cccc2c1/c(=C/c1ccc(N(C)C)cc1)c1cc(-c3ccccc3)[n+](C)n12`, the GI50 with SNB-19 was 0.0933 µM (active); with MDA-MB-231 it was 0.259 µM (active); in the test with Hs-578T it was 0.147 µM (active); in the test with OVCAR-4, 0.344 µM (active); with HCT-15, 0.471 µM; in the test on SF-539 it was 0.169 µM (active). Moreover, the GI50 with OVCAR-3 was 0.0857 µM (active); with NCI-H226, 0.177 µM (active); in the test on OVCAR-8 it was 0.0446 µM (active); in the test with OVCAR-5 it was 0.509 µM (active); in the test with HT-29 it was 0.0736 µM (active); in the test on NCI-H23 it was 0.131 µM (active). Also, the GI50 in the test with SK-MEL-2 is 0.131 µM (active); in the test on HOP-62 it was 0.218 µM (active); in the test with K562, 0.0493 µM (active); with PC-3, 0.0321 µM (active); with TK-10, 0.165 µM (active); with UACC-257, 0.113 µM (active). In addition, the GI50 in the test on IGROV-1 is 0.083 µM (active).
For the molecule `CC(=O)C(I(OS(=O)(=O)c1ccc(C)cc1)c1ccccc1)=P(c1ccccc1)(c1ccccc1)c1ccccc1`, the GI50 is 38.5 µM (inactive) in the test with SNB-19; 23.4 µM (inactive) in the test on MDA-MB-231; 23 µM (inactive) in the test with Hs-578T; 14.8 µM (inactive) in the test with OVCAR-4; above 100 µM in the test with HCT-15; 18.2 µM (inactive) in the test with SF-539. Also, the GI50 in the test with OVCAR-3 was 20.2 µM (inactive); in the test on NCI-H226, 17.1 µM (inactive); in the test with OVCAR-8, 32.6 µM (inactive); with OVCAR-5 it was 23 µM (inactive); in the test on HT-29 it was 18.9 µM (inactive); with NCI-H23, 18.1 µM (inactive). Besides, the GI50 in the test on SK-MEL-2 was 16 µM (inactive); in the test with HOP-62, 23.3 µM (inactive); in the test with K562 it was 30.6 µM (inactive); with PC-3, 26.5 µM (inactive); with TK-10 it was 84.9 µM (inactive); in the test on UACC-257 it was 22.6 µM (inactive). For the same molecule, in the test with IGROV-1, the GI50 was 35.6 µM (inactive).
Take `CS(=O)(=O)OCCN(CCOS(C)(=O)=O)c1ccc(/C=N/c2ccc(-c3csc(Cc4ccccc4)n3)cc2)c(Cl)c1`: the GI50 is > 45.3 µM (inactive) in the test on SNB-19; 25 µM (inactive) in the test with MDA-MB-231; 28.4 µM (inactive) in the test with Hs-578T; 31.7 µM (inactive) in the test on OVCAR-4; 30.3 µM with HCT-15; 22.8 µM (inactive) with SF-539. For the same molecule, the GI50 with OVCAR-3 was 17.7 µM (inactive); with NCI-H226 it was 0.218 µM (active); in the test with OVCAR-8 it was 27.4 µM (inactive); in the test with OVCAR-5, 5.01 µM (inactive); with HT-29 it was 21.9 µM (inactive); with NCI-H23, 23.5 µM (inactive). In addition, the GI50 is > 46 µM (inactive) with SK-MEL-2; 13 µM (inactive) in the test on HOP-62; 12.5 µM (inactive) with K562; 22.5 µM (inactive) with PC-3; 3.93 µM (inactive) with TK-10; 3.83 µM (inactive) with UACC-257. The GI50 in the test on IGROV-1 is 18.2 µM (inactive).
`COc1ccccc1C1C2=C(COC2=O)OC(C)(C)Oc2cc3c(cc21)OCO3` (stereo not drawn): the GI50 in the test with SNB-19 was 3.8 µM (inactive); with MDA-MB-231, 2.86 µM (inactive); in the test on Hs-578T it was 4.6 µM (inactive); with OVCAR-4, 10.3 µM (inactive); with HCT-15, 3.23 µM; in the test with SF-539, 2.74 µM (inactive). Moreover, the GI50 was 2.73 µM (inactive) in the test on OVCAR-3; 10.3 µM (inactive) in the test on NCI-H226; 5.12 µM (inactive) with OVCAR-8; 13.4 µM (inactive) in the test with OVCAR-5; 3.47 µM (inactive) in the test on HT-29; 3.89 µM (inactive) in the test with NCI-H23. Besides, the GI50 in the test with SK-MEL-2 was 4.06 µM (inactive); in the test with HOP-62, 4.02 µM (inactive); in the test on K562, 1.34 µM (inactive); in the test with PC-3, 2.19 µM (inactive); with TK-10, 1.69 µM (inactive); with UACC-257, 6.81 µM (inactive). Also, the GI50 in the test with IGROV-1 is 5.35 µM (inactive).
`COc1ccc2c(c1)-c1nc(=O)n(CCCN(C)C)c3ccc([N+](=O)[O-])c(c13)N2`: the GI50 was 2.5 µM (inactive) in the test with SNB-19; 0.561 µM (active) in the test on MDA-MB-231; 1.56 µM (inactive) in the test on Hs-578T; 1.77 µM (inactive) with OVCAR-4; 0.897 µM with HCT-15; 0.421 µM (active) with SF-539. Moreover, the GI50 was 2.13 µM (inactive) in the test with OVCAR-3; 3.81 µM (inactive) in the test on NCI-H226; 0.724 µM (active) in the test with OVCAR-8; 1.15 µM (inactive) with OVCAR-5; 0.473 µM (active) in the test on HT-29; 1.1 µM (active) with NCI-H23. The GI50 in the test on SK-MEL-2 is 12.2 µM (inactive); in the test with HOP-62, 0.675 µM (active); in the test with K562, 0.0811 µM (active); with PC-3, 0.792 µM (active); in the test with TK-10, 1.09 µM (active); in the test on UACC-257 it was 1.04 µM (active). The GI50 in the test with IGROV-1 was 0.413 µM (active).
As for `CC(=O)C1=C(C)N(c2ccc(C)cc2)C2(O)C=CC(=O)C3C(=O)N(c4ccccc4)C(=O)C132` (stereo not drawn), the GI50 in the test on SNB-19 was 25.2 µM (inactive); in the test on MDA-MB-231, 22.5 µM (inactive); in the test with Hs-578T, 29.7 µM (inactive); in the test on OVCAR-4, 20.8 µM (inactive); with HCT-15, 11.2 µM; in the test with SF-539, 24.4 µM (inactive). Also, the GI50 with OVCAR-3 is 22.3 µM (inactive); with NCI-H226 it was 17.1 µM (inactive); in the test on OVCAR-8 it was 23.3 µM (inactive); with OVCAR-5 it was 55.2 µM (inactive); with HT-29, 18.6 µM (inactive); with NCI-H23 it was 17.1 µM (inactive). The GI50 in the test on SK-MEL-2 is 12.5 µM (inactive); in the test on HOP-62, 25.9 µM (inactive); with K562, 3.42 µM (inactive); in the test on PC-3 it was 22.1 µM (inactive); with TK-10, 18.4 µM (inactive); in the test with UACC-257 it was 17.6 µM (inactive). The GI50 with IGROV-1 was 8.43 µM (inactive).
Take `COC(=O)c1cc(OC)c(OC)c(OC)c1-c1cc2c(cc1C=O)OCO2`: the GI50 was > 10 µM (inactive) in the test with SNB-19; > 10 µM (inactive) with MDA-MB-231; > 10 µM (inactive) in the test with Hs-578T; > 10 µM (inactive) with OVCAR-4; above 10 µM in the test with HCT-15; > 10 µM (inactive) in the test with SF-539. Further, the GI50 in the test on OVCAR-3, with NCI-H226, with OVCAR-8, in the test on OVCAR-5, in the test on HT-29 and with NCI-H23 was > 10 µM (inactive) each time. Moreover, the GI50 in the test with SK-MEL-2, in the test with HOP-62, in the test with K562, with PC-3, in the test on TK-10 and in the test on UACC-257 was > 10 µM (inactive) throughout. In addition, the GI50 in the test with IGROV-1 was > 10 µM (inactive).
As for `CN1CCc2c(sc3ncn(Nc4ccc(Cl)cc4)c(=N)c23)C1`, the GI50 is > 100 µM (inactive) with SNB-19; > 100 µM (inactive) in the test on MDA-MB-231; > 100 µM (inactive) in the test on Hs-578T; > 100 µM (inactive) in the test on OVCAR-4; above 100 µM in the test on HCT-15; > 100 µM (inactive) in the test with SF-539. The GI50 with OVCAR-3, in the test with NCI-H226, in the test on OVCAR-8, in the test on OVCAR-5, in the test with HT-29 and in the test on NCI-H23 was > 100 µM (inactive) in each case. In addition, the GI50 with SK-MEL-2, in the test with HOP-62, in the test with K562, in the test on PC-3, in the test on TK-10 and in the test with UACC-257 was > 100 µM (inactive) each time. In addition, the GI50 in the test on IGROV-1 was > 100 µM (inactive).
`Cc1cc(S(=O)(=O)/N=C(\NN)NNc2cccc(C(F)(F)F)n2)c(S)cc1Cl`: the GI50 with SNB-19 is 24.3 µM (inactive); with MDA-MB-231, 31.4 µM (inactive); in the test with Hs-578T it was 22.2 µM (inactive); in the test on OVCAR-4 it was 14.4 µM (inactive); in the test on HCT-15 it was 18.8 µM; with SF-539, 21.5 µM (inactive). For the same molecule, the GI50 in the test with OVCAR-3 is 22.1 µM (inactive); with NCI-H226 it was 18.3 µM (inactive); in the test with OVCAR-8 it was 24.8 µM (inactive); in the test with OVCAR-5 it was 14.9 µM (inactive); in the test with HT-29, 19.7 µM (inactive); with SK-MEL-2 it was 25.5 µM (inactive). In addition, the GI50 in the test with HOP-62 was 19.6 µM (inactive); in the test on K562 it was 22.7 µM (inactive); in the test on PC-3, 17.3 µM (inactive); with TK-10, 26.2 µM (inactive); in the test with UACC-257, 32.6 µM (inactive); in the test with IGROV-1, > 10 µM (inactive).
